This note sets out measurements from patent US20150175974A1, “PRODUCING SOLIDS AND RELATED MOTHER LIQUORS” (Syngenta Participations AG, priority 2012, published 2015).

“And” between values parts separate entries of the source, which are not always exact repeats. Equal entries are not always repeated.

Series [1] can be described thus: Particle size distribution of crystallized TMX (Malvern Mastersizer). Type of series: physicochemical. Here is the method: An aqueous solution of TMX at a concentration of 11 mg/ml was prepared. The respective portion of TMX and water was added to an appropriately sized vessel and heated to 60° C. to dissolve the TMX. Once dissolved, phage particles having binding domains selected to bind to TMX were added to the achieve target loading set forth in the Table 1 below. The solution was allowed to cool to room temperature and aged until crystallization was observed. Crystalline products were separated from the liquor by filtration and particle size distribution was measured using a Malvern Mastersizer.

The nature of series [2]: Crystal shape of TMX crystallized with phage particles (optical and electron microscopy). Type of series: physicochemical. The conditions noted are these: TMX 11 mg/ml, phage loading C/2 to C (C=37 mg/ml), FIG. 1 and FIG. 2. Here is the method:
An aqueous solution of TMX at a concentration of 11 mg/ml was prepared. The respective portion of TMX and water was added to an appropriately sized vessel and heated to 60° C. to dissolve the TMX. […] Phage loading was a C, C/2, C/10, C/25, and C/100. The solution was allowed to cool to room temperature and aged until crystallization was observed. Crystalline products were separated from the liquor by filtration and characterized by microscopy.

[3] abbreviates: average of the three measurements, TMX 11 mg/ml aqueous, cooled from 60° C.
[4] abbreviates: single measurements, TMX 11 mg/ml aqueous, dissolved at 60° C., cooled to room temperature, crystals filtered, listed as TMX control.

With `CN1COCN(Cc2cnc(Cl)s2)/C1=N\[N+](=O)[O-]` [TMX, Thiamethoxam], in series [1] (setting [3]), the “Size Dv (0.5) average” value is listed as 23.1057 μm and the “Size Dv (0.95) average” value is on record as 54.11 μm. The “Particle size of TMX crystallized in the presence of phage particles versus control” value in series [1] (phage particles having binding domains selected to bind to TMX, C/25 and C/100) was “marked reduction”. Besides, in series [1] (setting [4]), the “Size Dv (0.5)” value was 23.378 μm and 22.048 μm and 23.891 μm; the “Size Dv (0.95)” value is 52.18 μm and 54.16 μm and 55.74 μm. Also, the Crystal shape entry in series [2] is given as “more bi-pyramidal shape”.
